Values of other authors, collected in patent publication US20230346889A9, “TREATMENT OF ACUTE HEART FAILURE” (AnaCardio R&D AB, priority 2019, published 2023).
Non-standard residues stand in square brackets, D forms with d. Residues, ends and D or L forms follow the SMILES beside them. dTrp(2-Me) = Cc1[nH]c2ccccc2c1C[C@@H](N)C(=O)O; d2Nal = N[C@H](Cc1ccc2ccccc2c1)C(=O)O

Assays:
[1] = test system: patients with heart failure; settings: cited from earlier work; for association with mortality: observational ADHERE Registry
[2] = test system: dogs with acute myocardial infarction; settings: US2004014671A1; cited from earlier work

| Structure (SMILES) | association with mortality [1] | improvement of CO [2] | also measured |
| --- | --- | --- | --- |
| CC(CCc1ccc(O)cc1)NCCc1ccc(O)c(O)c1 (stereo not shown) [dobutamine] | independently associated with increased mortality | – | – |
| Cc1[nH]c(=O)c(C#N)cc1-c1ccncc1 [milrinone] | independently associated with increased mortality | – | adverse outcomes vs. placebo ([1]; randomized OPTIME CHF): caused significantly more hypotension and atrial arrhythmias and non-significantly more deaths |
| C[C@H](NC(=O)[C@@H](Cc1ccc2ccccc2c1)NC(=O)[C@@H](C)N)C(=O)N[C@@H](Cc1c[nH]c2ccccc12)C(=O)N[C@H](Cc1ccccc1)C(=O)N[C@@H](CCCCN)C(N)=O [Pralmorelin] (H-[dA][d2Nal]AW[dF]K-NH2) | – | improved | – |
| Cc1[nH]c2ccccc2c1C[C@@H](NC(=O)[C@@H](N)Cc1cnc[nH]1)C(=O)N[C@@H](C)C(=O)N[C@@H](Cc1c[nH]c2ccccc12)C(=O)N[C@H](Cc1ccccc1)C(=O)N[C@@H](CCCCN)C(N)=O [hexarelin] (H-H[dTrp(2-Me)]AW[dF]K-NH2) | – | not | – |
| C[C@@H]1CC(=O)NN=C1c1ccc(NN=C(C#N)C#N)cc1 [Levosimendan] | – | – | hypotension and arrhythmias vs. placebo ([1]; REVIVE I and II): increased hypotension and arrhythmias vs. placebo; effect on CO and blood pressure ([1]; human, in vivo): increases CO but also causes hypotension |
